Reference: US20100298141A1, “SUBSTITUTED PYRIDINE N-OXIDE HERBICIDES” (E. I. DU PONT DE NEMOURS AND COMPANY, priority 2007, published 2010)

Assays:
crabgrass = experiment: Test A pre-/postemergence greenhouse test; type: in vivo, Digitaria sanguinalis; details: for Crabgrass, Large plant response rating: 0 to 100 scale; for Plant response rating, Crabgrass, Large: 0 to 100 scale where 0 is no effect and 100 is complete control
Procedure, shortened: (§1)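 Greenhouse herbicide screen, pre- and postemergence in parallel. Soil: loam plus sand. Formulation: non-phytotoxic solvent mix with surfactant. Postemergence stage: one to two leaves, 2–10 cm height. Evaluation: visual injury, compared with untreated controls, about 10 days after treatment.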

morningglory = experiment: Test A pre-/postemergence greenhouse test; type: in vivo, Ipomoea spp.; details: for Morningglory plant response rating: 0 to 100 scale; for Plant response rating, Morningglory: 0 to 100 scale where 0 is no effect and 100 is complete control
Procedure, shortened: as §1

redroot pigweed = experiment: Test A pre-/postemergence greenhouse test; type: in vivo, Amaranthus retroflexus; details: for Pigweed plant response rating: 0 to 100 scale; for Plant response rating, Pigweed: 0 to 100 scale where 0 is no effect and 100 is complete control
Procedure, shortened: as §1

blackgrass = experiment: Test C pre-/postemergence test; type: in vivo, Alopecurus myosuroides; details: for Plant response rating, Blackgrass: 31 g ai/ha, scale 0 to 100 (0 no effect, 100 complete control); for Plant response rating (0 to 100), Blackgrass: 250 g ai/ha
Procedure, shortened: (§2)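 Test chemicals were formulated with surfactant in a non-phytotoxic solvent and sprayed both on freshly planted seeds (preemergence) and on 1- to 4-leaf plants of 2–18 cm (postemergence). Flooded-paddy pots received compound directly into 3 cm of standing water, maintained for the test.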

green foxtail = experiment: Test C pre-/postemergence test; type: in vivo, Setaria viridis; details: Preemergence; for Plant response rating, Foxtail, Green: 31 g ai/ha, scale 0 to 100 (0 no effect, 100 complete control); for Plant response rating (0 to 100), Foxtail, Green: 250 g ai/ha
Procedure, shortened: as §2

Italian ryegrass = experiment: Test C pre-/postemergence test; type: in vivo, Lolium multiflorum; details: Preemergence; for Ryegrass, Italian plant response rating: 62 g ai/ha, scale 0 to 100; for Plant response rating, Ryegrass, Italian: 31 g ai/ha, scale 0 to 100 (0 no effect, 100 complete control)
Procedure, shortened: as §2

wheat = experiment: Test C pre-/postemergence test; type: in vivo, Triticum aestivum; details: Preemergence; for Wheat plant response rating: 62 g ai/ha, scale 0 to 100; for Plant response rating, Wheat: 31 g ai/ha, scale 0 to 100 (0 no effect, 100 complete control)
Procedure, shortened: as §2

wild oat = experiment: Test C pre-/postemergence test; type: in vivo, Avena fatua; details: Preemergence; for Oat, Wild plant response rating: 62 g ai/ha, scale 0 to 100; for Plant response rating, Oat, Wild: 31 g ai/ha, scale 0 to 100 (0 no effect, 100 complete control)
Procedure, shortened: as §2

corn = experiment: Test C pre-/postemergence test; type: in vivo, Zea mays; details: for Plant response rating, Corn: 31 g ai/ha, scale 0 to 100 (0 no effect, 100 complete control); for Plant response rating (0 to 100), Corn: 250 g ai/ha
Procedure, shortened: as §2

woolly cupgrass = experiment: Test C pre-/postemergence test; type: in vivo, Eriochloa villosa; details: Preemergence; for Cupgrass, Woolly plant response rating: 62 g ai/ha, scale 0 to 100; for Plant response rating, Cupgrass, Woolly: 31 g ai/ha, scale 0 to 100 (0 no effect, 100 complete control); for Plant response rating (0 to 100), Cupgrass, Woolly: 250 g ai/ha
Procedure, shortened: as §2

Goosegrass = experiment: Test C pre-/postemergence test; type: in vivo, Eleusin indica; details: Preemergence; for Goosegrass plant response rating: 62 g ai/ha, scale 0 to 100; for Plant response rating, Goosegrass: 31 g ai/ha, scale 0 to 100 (0 no effect, 100 complete control); for Plant response rating (0 to 100), Goosegrass: 250 g ai/ha
Procedure, shortened: as §2

eastern black nightshade = experiment: Test C pre-/postemergence test; type: in vivo, Solanum ptycanthum; details: Preemergence; for Nightshade plant response rating: 62 g ai/ha, scale 0 to 100; for Plant response rating, Nightshade: 31 g ai/ha, scale 0 to 100 (0 no effect, 100 complete control)
Procedure, shortened: as §2

yellow nutsedge = experiment: Test C pre-/postemergence test; type: in vivo, Cyperus esculentus; details: Preemergence; for Nutsedge, Yellow plant response rating: 62 g ai/ha, scale 0 to 100; for Plant response rating, Nutsedge, Yellow: 31 g ai/ha, scale 0 to 100 (0 no effect, 100 complete control)
Procedure, shortened: as §2

common ragweed = experiment: Test C pre-/postemergence test; type: in vivo, Ambrosia elation; details: Preemergence; for Ragweed plant response rating: 62 g ai/ha, scale 0 to 100; for Plant response rating, Ragweed: 31 g ai/ha, scale 0 to 100 (0 no effect, 100 complete control)
Procedure, shortened: as §2

[1] = tested on: common (oilseed) sunflower; experiment: Test C pre-/postemergence test; type: in vivo, Helianthus annuus; details: Preemergence; for Sunflower plant response rating: 62 g ai/ha, scale 0 to 100; for Plant response rating, Sunflower: 31 g ai/ha, scale 0 to 100 (0 no effect, 100 complete control)
Procedure, shortened: as §2

umbrella sedge = experiment: Test C flooded paddy test; type: in vivo, Cyperus difformis; details: Flood
Procedure, shortened: (§3)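 Flooded 3 cm over soil; compound into paddy water; depth kept constant. Greenhouse 13–15 d.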

duck salad = experiment: Test C flooded paddy test; type: in vivo, Heteranthera limosa; details: Flood
Procedure, shortened: as §3

[2] = Postemergence, 125 g ai/ha, 0 is no effect, 100 is complete control
[3] = Postemergence, 500 g ai/ha, 0 is no effect, 100 is complete control
[4] = Preemergence, 125 g ai/ha, 0 no effect, 100 complete control
[5] = 62 g ai/ha, Preemergence, scale 0 to 100
[6] = preemergence, 125 g ai/ha, scale 0 (no effect) to 100 (complete control)
[7] = 31 g ai/ha, scale 0 to 100 (0 no effect, 100 complete control)
[8] = 62 g ai/ha, scale 0 to 100, 0 no effect, 100 complete control, 13 to 15 days
[9] = 125 g ai/ha, scale 0 to 100, 0 no effect, 100 complete control, 13 to 15 days
[10] = 250 g ai/ha, scale 0 to 100, 0 no effect, 100 complete control, 13 to 15 days

`Cc1cc[n+]([O-])c([S+]([O-])Cc2c(C(F)(F)F)nn(C)c2OCC(F)(F)F)c1` (racemic) [Compound 30] was tested, and the “Crabgrass, Large plant response rating” value (crabgrass; [2]) was 70, the “Crabgrass, Large plant response rating” value (crabgrass; [3]) was 90 and the “Crabgrass, Large plant response rating” value (crabgrass; [4]) was 100. For the same compound, the “Plant response rating, Crabgrass, Large” value (crabgrass; Preemergence, 500 g ai/ha) was 100, the “Morningglory plant response rating” value (morningglory; [2]) was 70 and the “Morningglory plant response rating” value (morningglory; [3]) was 90. The “Morningglory plant response rating” value (morningglory; [4]) was 100, the “Plant response rating, Morningglory” value (morningglory; Preemergence, 500 g ai/ha) was 100 and the “Pigweed plant response rating” value (redroot pigweed; [2]) was 90. For the same compound, the “Pigweed plant response rating” value (redroot pigweed; [3]) was 100, the “Pigweed plant response rating” value (redroot pigweed; [4]) was 100 and the “Plant response rating, Pigweed” value (redroot pigweed; Preemergence, 500 g ai/ha) was 100. The “Blackgrass plant response rating” value (blackgrass; [5]) was 100, the “Plant response rating, Blackgrass” value (blackgrass; Preemergence) was 80 and the “Plant response rating (0 to 100), Blackgrass” value (blackgrass; Preemergence) was 100. For the same compound, the “Blackgrass plant response rating” value (blackgrass; [6]) was 100, the “Foxtail, Green plant response rating” value (green foxtail; 62 g ai/ha, scale 0 to 100) was 100 and the “Plant response rating, Foxtail, Green” value (green foxtail) was 100. For the same compound, the “Plant response rating (0 to 100), Foxtail, Green” value (green foxtail) was 100, the “Ryegrass, Italian plant response rating” value (Italian ryegrass) was 70 and the “Plant response rating, Ryegrass, Italian” value (Italian ryegrass) was 0. For the same compound, the “Wheat plant response rating” value (wheat) was 25, the “Plant response rating, Wheat” value (wheat) was 0 and the “Oat, Wild plant response rating” value (wild oat) was 60. For the same compound, the “Plant response rating, Oat, Wild” value (wild oat) was 10, the “Corn plant response rating” value (corn; [5]) was 40 and the “Plant response rating, Corn” value (corn; Preemergence) was 5. The “Plant response rating (0 to 100), Corn” value (corn; Preemergence) was 98, the “Corn plant response rating” value (corn; [6]) was 85 and the “Cupgrass, Woolly plant response rating” value (woolly cupgrass) was 100. The “Plant response rating, Cupgrass, Woolly” value (woolly cupgrass) was 50, the “Plant response rating (0 to 100), Cupgrass, Woolly” value (woolly cupgrass) was 100 and the “Goosegrass plant response rating” value (Goosegrass) was 100. For the same compound, the “Plant response rating, Goosegrass” value (Goosegrass) was 98, the “Plant response rating (0 to 100), Goosegrass” value (Goosegrass) was 100 and the “Nightshade plant response rating” value (eastern black nightshade) was 100. The “Plant response rating, Nightshade” value (eastern black nightshade) was 100, the “Nutsedge, Yellow plant response rating” value (yellow nutsedge) was 70 and the “Plant response rating, Nutsedge, Yellow” value (yellow nutsedge) was 65. For the same compound, the “Ragweed plant response rating” value (common ragweed) was 60, the “Plant response rating, Ragweed” value (common ragweed) was 0 and the “Sunflower plant response rating” value [1] was 70. For the same compound, the “Plant response rating, Sunflower” value [1] was 40, the “Plant response rating, Sedge, Umbrella” value (umbrella sedge; [7]) was 80 and the “Plant response rating, Sedge, Umbrella” value (umbrella sedge; [8]) was 100. The “Plant response rating, Sedge, Umbrella” value (umbrella sedge; [9]) was 100, the “Plant response rating, Sedge, Umbrella” value (umbrella sedge; [10]) was 100 and the “Plant response rating, Ducksalad” value (duck salad; [7]) was 65. The “Plant response rating, Ducksalad” value (duck salad; [8]) was 75, the “Plant response rating, Ducksalad” value (duck salad; [9]) was 100 and the “Plant response rating, Ducksalad” value (duck salad; [10]) was 100.
For `Cn1nc(C(F)(F)F)c(CS(=O)(=O)c2ccc(Cl)c[n+]2[O-])c1Cl` [Compound 18], the “Crabgrass, Large plant response rating” value (crabgrass; [2]) was 60, the “Crabgrass, Large plant response rating” value (crabgrass; [3]) was 80 and the “Crabgrass, Large plant response rating” value (crabgrass; [4]) was 80. The “Plant response rating, Crabgrass, Large” value (crabgrass; Preemergence, 500 g ai/ha) was 90, the “Morningglory plant response rating” value (morningglory; [2]) was 0 and the “Morningglory plant response rating” value (morningglory; [3]) was 20. The “Morningglory plant response rating” value (morningglory; [4]) was 0, the “Plant response rating, Morningglory” value (morningglory; Preemergence, 500 g ai/ha) was 20 and the “Pigweed plant response rating” value (redroot pigweed; [2]) was 0. For the same compound, the “Pigweed plant response rating” value (redroot pigweed; [3]) was 60, the “Pigweed plant response rating” value (redroot pigweed; [4]) was 90 and the “Plant response rating, Pigweed” value (redroot pigweed; Preemergence, 500 g ai/ha) was 100. For the same compound, the “Blackgrass plant response rating” value (blackgrass; [5]) was 0, the “Plant response rating, Blackgrass” value (blackgrass; Preemergence) was 0 and the “Plant response rating (0 to 100), Blackgrass” value (blackgrass; Preemergence) was 98. The “Blackgrass plant response rating” value (blackgrass; [6]) was 98, the “Plant response rating, Foxtail, Green” value (green foxtail) was 20 and the “Plant response rating (0 to 100), Foxtail, Green” value (green foxtail) was 100. For the same compound, the “Ryegrass, Italian plant response rating” value (Italian ryegrass) was 0, the “Plant response rating, Ryegrass, Italian” value (Italian ryegrass) was 0 and the “Wheat plant response rating” value (wheat) was 0. For the same compound, the “Plant response rating, Wheat” value (wheat) was 0, the “Oat, Wild plant response rating” value (wild oat) was 0 and the “Plant response rating, Oat, Wild” value (wild oat) was 0. For the same compound, the “Corn plant response rating” value (corn; [5]) was 0, the “Plant response rating, Corn” value (corn; Preemergence) was 0 and the “Plant response rating (0 to 100), Corn” value (corn; Preemergence) was 15. The “Corn plant response rating” value (corn; [6]) was 0, the “Cupgrass, Woolly plant response rating” value (woolly cupgrass) was 80 and the “Plant response rating, Cupgrass, Woolly” value (woolly cupgrass) was 10. For the same compound, the “Plant response rating (0 to 100), Cupgrass, Woolly” value (woolly cupgrass) was 100, the “Goosegrass plant response rating” value (Goosegrass) was 100 and the “Plant response rating, Goosegrass” value (Goosegrass) was 90. For the same compound, the “Plant response rating (0 to 100), Goosegrass” value (Goosegrass) was 100, the “Nightshade plant response rating” value (eastern black nightshade) was 60 and the “Plant response rating, Nightshade” value (eastern black nightshade) was 60. For the same compound, the “Nutsedge, Yellow plant response rating” value (yellow nutsedge) was 0, the “Plant response rating, Nutsedge, Yellow” value (yellow nutsedge) was 0 and the “Ragweed plant response rating” value (common ragweed) was 0. The “Plant response rating, Ragweed” value (common ragweed) was 0, the “Sunflower plant response rating” value [1] was 0 and the “Plant response rating, Sunflower” value [1] was 0. For the same compound, the “Plant response rating, Sedge, Umbrella” value (umbrella sedge; [7]) was 0, the “Plant response rating, Sedge, Umbrella” value (umbrella sedge; [8]) was 0 and the “Plant response rating, Sedge, Umbrella” value (umbrella sedge; [9]) was 80. For the same compound, the “Plant response rating, Sedge, Umbrella” value (umbrella sedge; [10]) was 85, the “Plant response rating, Ducksalad” value (duck salad; [7]) was 0 and the “Plant response rating, Ducksalad” value (duck salad; [8]) was 0. The “Plant response rating, Ducksalad” value (duck salad; [9]) was 80 and the “Plant response rating, Ducksalad” value (duck salad; 250 g ai/ha, scale 0 to 100 (0 no effect, 100 complete control)) was 80.
